This is an account of results in PubChem BioAssay (NCI).

Common to all, as to experiment: NCI tumour cell line growth inhibition, 48 h
Test [1] deals with COLO 205 colon.
Test [2] relates to HCC-2998 colon.
Test [3] relates to LOX IMVI melanoma.
For test [4], the system named is SK-MEL-2 melanoma.
Test [5] has as its system SK-MEL-5 melanoma.
In test [6] the test system is SNB-19 CNS.
Test [7] has as its system T-47D breast.
Test [8] concerns ACHN renal.
The subject of test [9] is HOP-92 NSCLC.
The subject of test [10] is NCI-H460 lung.
Test [11] deals with TK-10 renal.

Where “and” joins values, the source holds several entries; their conditions need not be identical. Equal values may be shown once.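 Interpolation was linear, between the two tested concentrations surrounding the appropriate level; five concentrations were tested over 48 hours in 96-well plates. GI50 = concentration required for 50% inhibition of growth. TGI: total growth inhibition.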

As for `CC(C)CCCC(C)[C@H]1CC[C@H]2[C@@H]3CC[C@H]4C[C@@H](CCC=C(c5cc(Cl)c(O)c(C(=O)OC(C)(C)C)c5)c5cc(Cl)c(O)c(C(=O)OC(C)(C)C)c5)CC[C@]4(C)[C@H]3CC[C@]12C` (some centres undefined), the TGI in test [1], in test [2], in test [3], in [4], in test [5] and in test [6] was greater than 50 µM each time. Further, in [7], the TGI was greater than 50 µM.

`COc1cc(/C=C2\N=C(c3ccccc3)N(C3Nc4cc5c(cc4S3)NC(N3C(=O)/C(=C/c4cc(OC)c(OC)c(OC)c4)N=C3c3ccccc3)S5)C2=O)cc(OC)c1OC` (centres undefined): the TGI in test [8], in test [2], in test [9], in test [3], in test [10] and in test [4] was greater than 100 µM throughout. For the same compound, the TGI in [5], in test [7] and in test [11] was greater than 100 µM each time.

As to `CN(C)c1ccc(/C=C/c2sc3ccc4ccccc4c3[n+]2C)cc1`, the GI50 in [8] is 0.537 µM; in test [2], 0.365 µM; in test [9], 0.636 µM; in test [6], 0.521 µM; in [7] it was 0.367 µM; in [11], 0.41 µM. In addition, the TGI in test [8] is greater than 100 µM; in test [2], 1.57 µM; in test [9] it was 2.84 µM; in [6] it was greater than 100 µM; in test [11], 1.92 µM.

For the compound `CCCCCCOc1ccc(NC2=C(Cl)C(=O)c3cccnc3C2=O)cc1`, the TGI in test [8] was found to be 4.38 µM; in test [2], 3.1 µM; in [9], 3.53 µM; in [3], 2.81 µM; in test [10], 3.8 µM; in [4] it was 4.43 µM. In addition, the TGI in test [5] was 2.31 µM; in test [6], greater than 10 µM; in test [7], 3.78 µM; in test [11], 9.49 µM.

Regarding `O=C1Oc2ccccc2C(=O)/C1=C/N1C(=O)/C(=C/c2ccc([N+](=O)[O-])cc2)SC1=S`, the TGI in test [8] was 34 µM; in [1] it was 53.2 µM; in [2] it was 42.2 µM; in [9], 5.71 µM; in test [3] it was greater than 100 µM; in test [10] it was 57.8 µM. The TGI in test [4] was found to be 82.4 µM; in test [5] it was 46.4 µM; in [6], 79.1 µM; in [7], 51.7 µM.

Consider `Cc1cc(C)c2c(n1)S(=O)(=O)N(CCCN1CCN(c3cccc(C(F)(F)F)c3)CC1)/C(=C(\O)c1ccccc1)C2=O`, for which the TGI in test [8] is greater than 100 µM; in [1], 14.7 µM; in test [9], 36.8 µM; in test [3], 11.3 µM; in test [10], 22.3 µM; in test [4], greater than 100 µM. In addition, the TGI was 14.1 µM in test [5], greater than 100 µM in test [6], greater than 100 µM in test [7] and greater than 100 µM in test [11].

On to `CO/N=C1\CCC2(O)C3Cc4ccc(O)c5c4C2(CCN3CC2CC2)[C@H]1O5` (some centres undefined), for which the TGI in test [8], in test [1], in [9], in test [3], in test [4] and in test [5] was greater than 100 µM in each case. In addition, the TGI in test [6], in [7] and in test [11] was greater than 100 µM throughout.

Turning to `O=C(O)Cc1ccc(N2N=C(c3ccccc3)CC2=O)cc1`, the TGI in [8], in test [1], in test [2], in [10], in test [4] and in test [5] was greater than 100 µM throughout. For the same compound, the TGI in test [6], in [7] and in test [11] was greater than 100 µM each time.

On to `CCOC(=O)CCC(C(=O)OCC)n1nc2ccc(Nc3c(C)[n+]([O-])c4cc(Cl)ccc4[n+]3[O-])cc2n1` (centres undefined), for which the TGI is greater than 100 µM in test [8]; greater than 100 µM in test [1]; greater than 100 µM in test [9]; greater than 100 µM in test [3]; 67.4 µM in [10]; greater than 100 µM in [4]. The TGI in test [5], in test [6], in [7] and in [11] was greater than 100 µM in each case.

Turning to `CC(C)(C)c1cc(-c2ccc(-c3cc(C(C)(C)C)c(O)c(C(C)(C)C)c3)cc2)cc(C(C)(C)C)c1O`, the TGI in test [8], in test [1], in test [9], in test [3], in test [4] and in test [5] was greater than 100 µM in each case. Further, the TGI in test [6], in test [7] and in [11] was greater than 100 µM in each case.

Consider `COC(=O)C1OC(O[C@H]2CC[C@]3(C)[C@H]4CC=C5[C@@H]6CC(C)(C)CC[C@]6(C(=O)OC)[C@H](O)C[C@@]5(C)[C@]4(C)CC[C@H]3C2(C)C)C(O)C(O)C1O` (some centres undefined), for which the TGI in [8] was found to be 23.8 µM; in test [1], 17.5 µM; in test [2], 8.64 µM; in test [9], 30.5 µM; in test [3], 17.1 µM; in test [10], 22.7 µM. The TGI in test [4] worked out at 28.7 µM; in test [5], 26.2 µM; in test [6], 26.9 µM; in [7], 28.6 µM.

`C=C(C)CCC1CCCCC(CN(C)C)C1=O` (centres undefined): the TGI in [8], in test [1], in test [9], in [3], in test [10] and in test [4] was greater than 100 µM each time. Besides, the TGI in test [5], in [6], in test [7] and in test [11] was greater than 100 µM throughout.

Take `N#CCCC(CC#N)N1CCN(CCO)CC1` (centres undefined): the TGI in test [8], in [1], in [2], in [9], in test [10] and in test [5] was greater than 100 µM each time. In addition, the TGI in test [6], in [7] and in test [11] was greater than 100 µM each time.

With `Cc1cc2c(c3oc(C(O)(CO)C4CO4)cc(=O)c13)C(=O)c1c(O)cccc1C2=O` (centres undefined), the TGI was 0.00524 µM in test [8]; 0.00115 µM in test [1]; 0.00727 µM and 0.00365 µM and 0.0112 µM in [2]; 0.000983 µM in [9]; 0.00012 µM in test [10]; 0.00415 µM in test [4]. Besides, the TGI in test [6] is 0.00442 µM and 0.00494 µM; in test [7], 0.00683 µM and 0.00232 µM and 0.0146 µM. Further, the GI50 in [1] was 0.0001 µM; in [2], 0.000169 µM; in [6], 0.000231 µM; in test [7] it was 0.00375 µM.

Turning to `COc1ccc(CNc2nc(NCc3ccc(OC)cc3)nc(Nc3ccccc3)n2)cc1`, the TGI in [8], in test [1], in test [9], in test [10], in test [4] and in [5] was greater than 100 µM each time. The TGI in test [6], in test [7] and in test [11] was greater than 100 µM each time.

`O=S(=O)(O)CCS`: the TGI in test [8], in test [1], in test [2], in [9], in test [3] and in test [10] was greater than 100 µM each time. Moreover, the TGI in test [4], in [5], in [6] and in test [7] was greater than 100 µM throughout.

Turning to `OCCCSc1ccccc1SCCCO`, the TGI in test [1], in test [2], in test [9], in test [3], in test [10] and in test [5] was greater than 100 µM in each case. Also, the TGI in test [6], in [7] and in test [11] was greater than 100 µM throughout.

Consider `O=c1nc2n(cc1/C=C\Br)C1CC(O)C(CO2)O1` (centres undefined), for which the TGI in test [8], in [1], in [2], in test [3], in test [10] and in [5] was greater than 100 µM each time. For the same compound, the TGI in [6], in test [7] and in [11] was greater than 100 µM throughout.

Take `COC(=O)[C@H]1[C@H](C(=O)OC)[C@@H](C)c2c(ccc3c2[nH]c2ccccc23)[C@@H]1C`: the TGI in test [8], in test [1], in test [9], in test [3], in [10] and in test [4] was greater than 100 µM each time. The TGI in [5], in test [6], in test [7] and in [11] was greater than 100 µM in each case.

Consider `COC1=CC(=O)C(O)=C(C[C@@]2(C)[C@@H]3CCC[C@H](COC(=O)CCCCCNC(=O)OC(C)(C)C)[C@@]3(C)CC[C@@H]2C)C1=O`, for which the TGI in [8], in test [1], in test [9], in test [3], in test [4] and in test [5] was greater than 10 µM throughout. Further, the TGI in test [6], in test [7] and in test [11] was greater than 10 µM throughout.

As to `COC1(OC)N=C(N)C2(C#N)C(C)CC(=O)N(N(C)C)C12C#N` (centres undefined), the TGI in test [8], in [1], in test [2], in [9], in test [3] and in [4] was greater than 100 µM in each case. Further, the TGI in test [5], in [6], in [7] and in test [11] was greater than 100 µM in each case.

As to `N#CC1C(=O)Nc2sc(C(=O)c3ccc(Br)cc3)c(N)c2C12CCCCC2` (centres undefined), the TGI in test [8] was greater than 100 µM; in test [1] it was 40.1 µM; in test [2], 57.7 µM; in test [3], greater than 100 µM; in [10], greater than 100 µM; in test [4], 37.7 µM. Besides, the TGI was 32.5 µM in test [5], greater than 100 µM in test [6], greater than 100 µM in test [7] and greater than 100 µM in test [11].

Regarding `CC(C)(C)NC(NC(C)(C)C)=C(C(Cl)=C(Cl)Cl)[N+](=O)[O-]`, the TGI in test [8], in test [1], in test [2], in [3], in test [10] and in test [5] was greater than 100 µM in each case. The TGI in test [6], in test [7] and in test [11] was greater than 100 µM throughout.

As to `Cn1c(-c2csc(-c3ccc(Cl)cc3)n2)n[nH]c1=S`, the TGI in test [8] was 34.8 µM; in test [1], greater than 100 µM; in test [2] it was greater than 100 µM; in test [9], 27.1 µM; in [3] it was 73 µM; in test [10], greater than 100 µM. Further, the TGI is greater than 100 µM in test [5], 44.4 µM in test [6], greater than 100 µM in test [7] and 40.2 µM in test [11].

`NC(=O)c1n[nH]n(-c2ccccc2)c1=O`: the TGI in test [8], in [1], in [2], in test [3], in test [10] and in test [4] was greater than 100 µM throughout. Also, the TGI in [5], in test [6], in [7] and in [11] was greater than 100 µM each time.

In the case of `CCCn1cnc2c(NN=O)ncnc21`, the TGI in test [8], in test [1], in [2], in test [9], in test [10] and in [5] was greater than 100 µM each time. The TGI in [6], in test [7] and in [11] was greater than 100 µM throughout.
